ChEMBL document CHEMBL1143042, “Isolation and syntheses of polymethoxyflavones and hydroxylated polymethoxyflavones as inhibitors of HL-60 cell lines” (Bioorg Med Chem, 2007)
Calls of active or inactive are those of the source. No cut-off for these calls is given here.

What was measured:
Type in all cases: functional, cell-based
HL-60 [1] = assay: Antiproliferative activity against HL60 after 24 hrs; details: Homo sapiens, HL-60, 24 h
HL-60 [2] = assay: Apoptotic activity in HL60 cells after 24 hrs; details: Homo sapiens, HL-60, 24 h
PMN = assay: Cytotoxicity against human PMN cells at 100 uM

For `COc1cc(-c2cc(=O)c3c(OC)c(OC)c(OC)c(OC)c3o2)ccc1O`, which IC50 (HL-60 [1]) is on record?
The IC50 was 47.4 µM.

What about the AC50 (HL-60 [2]) of the same compound?
The AC50 was 87.1 µM.

And the Activity (PMN)?
Its Activity is “inactive”.

How did the IC50 (HL-60 [1]) turn out when `COc1ccc(-c2cc(=O)c3c(OC)c(OC)c(OC)c(OC)c3o2)cc1O` was run?
The IC50 was 52.7 µM.

And the AC50 (HL-60 [2])?
The AC50 was 94.6 µM.

And the Activity (PMN)?
Its Activity is “inactive”.

Which results are given for `COc1ccc(-c2cc(=O)c3c(O)c(OC)c(OC)cc3o2)cc1OC`?
IC50 (HL-60 [1]): > 100 µM; AC50 (HL-60 [2]): > 100 µM; Activity (PMN): inactive

`COc1ccc(-c2oc3c(OC)c(OC)c(OC)c(O)c3c(=O)c2OC)cc1OC` was tested. Which IC50 (HL-60 [1]) did it give?
Its IC50 is 4.16 µM.

What about the AC50 (HL-60 [2]) of the same compound?
The AC50 was 5.9 µM.

And the Activity (PMN)?
Its Activity is “inactive”.

How did the IC50 (HL-60 [1]) turn out when `COc1c(OC)c(OC)c2c(=O)cc(-c3ccc(O)c(O)c3)oc2c1OC` was run?
The IC50 was 71.2 µM.

And the AC50 (HL-60 [2])?
The AC50 was greater than 100 µM.

And the Activity (PMN)?
The Activity was “inactive”.

What does the source list for `COc1ccc(-c2oc3c(OC)c(OC)c(OC)c(OC)c3c(=O)c2OC)cc1OC` [3,5,6,7,8,3',4'-HEPTAMETHOXYFLAVONE]?
IC50 (HL-60 [1]): 13.3 µM; AC50 (HL-60 [2]): 33.9 µM; Activity (PMN): inactive

How did the IC50 (HL-60 [1]) turn out when `COc1ccc(-c2cc(=O)c3c(O)c(OC)c(OC)c(OC)c3o2)cc1OC` [5-DEMETHYLNOBILETIN] was run?
Its IC50 is 2.07 µM.

And the AC50 (HL-60 [2])?
Its AC50 is 5.87 µM.

What about the Activity (PMN) of the same compound?
Its Activity is “inactive”.

What does the source list for `COc1ccc(-c2oc3cc(OC)c(OC)c(O)c3c(=O)c2OC)cc1OC` [ARTEMETIN]?
IC50 (HL-60 [1]): 6.44 µM; AC50 (HL-60 [2]): 7.26 µM; Activity (PMN): inactive

What does the source list for `COc1ccc(-c2cc(=O)c3c(O)c(OC)c(OC)c(OC)c3o2)cc1` [GARDENIN B]?
IC50 (HL-60 [1]): > 100 µM; AC50 (HL-60 [2]): > 100 µM; Activity (PMN): inactive

For `COc1cc(-c2cc(=O)c3c(O)c(OC)c(OC)c(OC)c3o2)cc(OC)c1OC` [GARDENIN], which IC50 (HL-60 [1]) is on record?
Its IC50 is greater than 100 µM.

And the AC50 (HL-60 [2])?
Its AC50 is greater than 100 µM.

What about the Activity (PMN) of the same compound?
Its Activity is “inactive”.

For `COc1ccc(-c2oc3cc(OC)c(OC)c(OC)c3c(=O)c2OC)cc1OC` [HEXAMETHOXYFLAVONE], which IC50 (HL-60 [1]) is on record?
Its IC50 is 20.6 µM.

What about the AC50 (HL-60 [2]) of the same compound?
Its AC50 is 92.1 µM.

And the Activity (PMN)?
Its Activity is “inactive”.

What does the source list for `COc1ccc(-c2oc3c(OC)c(OC)c(OC)c(OC)c3c(=O)c2O)cc1OC` [NATSUDAIDAI]?
IC50 (HL-60 [1]): > 100 µM; AC50 (HL-60 [2]): 56.5 µM; Activity (PMN): inactive

With `COc1ccc(-c2cc(=O)c3c(OC)c(OC)c(OC)c(OC)c3o2)cc1OC` [NOBILETIN] as the compound, how does the IC50 (HL-60 [1]) read?
Its IC50 is 41.5 µM.

And the AC50 (HL-60 [2])?
The AC50 was greater than 100 µM.

And the Activity (PMN)?
The Activity was “inactive”.

Which results are given for `COc1ccc(-c2cc(=O)c3c(OC)c(OC)c(OC)cc3o2)cc1OC` [SINENSETIN]?
IC50 (HL-60 [1]): > 100 µM; AC50 (HL-60 [2]): > 100 µM; Activity (PMN): inactive

For `COc1ccc(-c2cc(=O)c3c(OC)c(OC)c(OC)c(OC)c3o2)cc1` [TANGERETIN], which IC50 (HL-60 [1]) is on record?
Its IC50 is greater than 100 µM.

What about the AC50 (HL-60 [2]) of the same compound?
Its AC50 is greater than 100 µM.

What about the Activity (PMN) of the same compound?
Its Activity is “inactive”.
